# Test results: patent US11571398B1, “Compositions comprising ephedrine or an ephedrine salt and methods of making and using same” (Nexus Pharmaceuticals, Inc., priority 2019, dated 2023)
# Where two headings read alike, the source gives them in different places.
# Tests used:
# [1] = HPLC-UV-CAD (QTOF LC-MS) extractables of stoppers: 50/50 IPA/Water extract; assay type: physicochemical; conditions: stopper extract, reflux 12 hours, relative quantitation against standard (12-HDA, Irgacure 184 or Oleamide), average of duplicate injections
# [2] = HPLC-UV-CAD (QTOF LC-MS) extractables of stoppers: pH 9.4 extract; assay type: physicochemical; conditions: stopper extract, water pH 9.4, reflux 20 hours; relative quantitation against standard (12-HDA, Irgacure 184 or Oleamide); average of duplicate injections
# [3] = for ICP-MS Results (ppb) Glass vials (2% HNO3): glass vials extracted in 2% HNO3, 60° C.; for ICP-MS Results (ppb) Glass vials (2% HNO3) / ICP-MS Results (ppb) Stoppers (2% HNO3): ~24 h; for ICP-MS Results (ppb) Stoppers (2% HNO3): stoppers extracted in 2% HNO3, 60° C.
# [4] = 2.5 ppb = lowest calibration concentration
# [5] = stoppers, refluxed aqueous solution pH 3.4, 2.5 ppb = lowest calibration concentration
compound,measurement,setting,value
C1COCCOCCSSCCOCCO1,"Est. Conc. of extractable (possible identification), HPLC-UV-CAD",[1],<0.5 µg/mL
Cc1cc(C(C)(C)C)cc(S(=O)(=O)O)c1 [5-(tert-Butyl)-3-toluenesulfonic acid],"Est. Conc. of extractable (possible identification), HPLC-UV-CAD",[1],0.25 µg/mL
CCCCOCCOCCOC(C)=O [Butyldiglycol acetate],"Est. Conc. of extractable (possible identification), HPLC-UV-CAD",[1],<0.5 µg/mL
O=S(O)S(=O)O [Dithionous acid],"Est. Conc. of extractable (possible identification), HPLC-UV-CAD",[2],3.52 µg/mL
CCCCCCCCCCCCOS(C)(=O)=O [Dodecyl methanesulfonate],"Est. Conc. of extractable (possible identification), HPLC-UV-CAD",[1],0.65 µg/mL
CCCCCCCCCCCC(=O)NCCC[N+](C)(C)CC(=O)[O-] [Lauramidopropyl betaine],"Est. Conc. of extractable (possible identification), HPLC-UV-CAD",[1],<0.5 µg/mL
CCCCCCCCCCCC(=O)O [Lauric acid],"Est. Conc. of extractable (possible identification), HPLC-UV-CAD",[1],<0.5 µg/mL
CCCC(=O)C(O)c1ccccc1 (stereo not shown) [Lot 1-Hydroxy-1-phenyl-2-pentanone],"Est. Conc. of extractable (possible identification), HPLC-UV-CAD",[2],0.10 µg/mL
same,"Est. Conc. of extractable (possible identification), HPLC-UV-CAD",[1],30.47 µg/mL
CCCCCCCCCCCCCC(=O)O [Myristic acid],"Est. Conc. of extractable (possible identification), HPLC-UV-CAD",[1],<0.5 µg/mL
CCCCCCCC/C=C\CCCCCCCC(N)=O [Oleamide],"Est. Conc. of extractable (possible identification), HPLC-UV-CAD",[1],<0.5 µg/mL
CCCCCCCCCCCCCCCC(N)=O [Palmitamide],"Est. Conc. of extractable (possible identification), HPLC-UV-CAD",[1],<0.5 µg/mL
CCCCCCCCCCCCCCCC(=O)O [Palmitic acid],"Est. Conc. of extractable (possible identification), HPLC-UV-CAD",[1],10.74 µg/mL
CCCCCC[C@@H](O)C/C=C\CCCCCCCC(=O)O [Ricinoleic acid],"Est. Conc. of extractable (possible identification), HPLC-UV-CAD",[1],<0.5 µg/mL
CCCCCCCCCCCCCCCCCC(N)=O [Stearamide],"Est. Conc. of extractable (possible identification), HPLC-UV-CAD",[1],<0.5 µg/mL
OCCOCCOCCO [Triethylene glycol],"Est. Conc. of extractable (possible identification), HPLC-UV-CAD",[2],<0.5 µg/mL
same,"Est. Conc. of extractable (possible identification), HPLC-UV-CAD",[1],<0.5 µg/mL
Antimony,ICP-MS Results (ppb) Glass vials (2% HNO3),[3]; [4],<2.5 ppb
same,ICP-MS Results (ppb) Stoppers (Reflux pH 3.4),[3]; pH 3.4,<2.5 ppb
Arsenic,ICP-MS Results (ppb) Glass vials (2% HNO3),[3]; [4],<2.5 ppb
same,ICP-MS Results (ppb) Stoppers (2% HNO3),[3]; [4],<2.5 ppb
same,ICP-MS Results (ppb) Stoppers (Reflux pH 3.4),[3]; [5],<2.5 ppb
Cadmium,ICP-MS Results (ppb) Glass vials (2% HNO3),[3]; [4],<2.5 ppb
same,ICP-MS Results (ppb) Stoppers (2% HNO3),[3]; [4],<2.5 ppb
same,ICP-MS Results (ppb) Stoppers (Reflux pH 3.4),[3]; [5],<2.5 ppb
Cobalt,ICP-MS Results (ppb) Glass vials (2% HNO3),[3]; [4],2.6 ppb
same,ICP-MS Results (ppb) Stoppers (Reflux pH 3.4),[3]; pH 3.4,<2.5 ppb
Copper,ICP-MS Results (ppb) Glass vials (2% HNO3),[3]; [4],3.7 ppb
same,ICP-MS Results (ppb) Stoppers (Reflux pH 3.4),[3]; pH 3.4,<2.5 ppb
Laureth-3,"Est. Conc. of extractable (possible identification), HPLC-UV-CAD",[1],<0.5 µg/mL
Laureth-4,"Est. Conc. of extractable (possible identification), HPLC-UV-CAD",[1],<0.5 µg/mL
Laureth-9,"Est. Conc. of extractable (possible identification), HPLC-UV-CAD",[1],<0.5 µg/mL
Lead,ICP-MS Results (ppb) Glass vials (2% HNO3),[3]; [4],<2.5 ppb
same,ICP-MS Results (ppb) Stoppers (2% HNO3),[3]; [4],<2.5 ppb
same,ICP-MS Results (ppb) Stoppers (Reflux pH 3.4),[3]; [5],<2.5 ppb
Lithium,ICP-MS Results (ppb) Glass vials (2% HNO3),[3]; [4],2.6 ppb
same,ICP-MS Results (ppb) Stoppers (Reflux pH 3.4),[3]; pH 3.4,<2.5 ppb
